What was measured:
[1] = Solubility in aqueous solutions; type: physicochemical
[2] = In vitro dephosphorylation by brain homogenate (inorganic phosphate release); type: in vitro ADME, mouse; details: positive control substrate, 1.5 mg mouse-brain homogenate
Description: Potential dephosphorylation of CLR01 was analyzed by incubating 100 nmol CLR01 with 0.08 units of alkaline phosphatase (ALP; calf intestinal alkaline phosphatase, Promega, Madison, Wisconsin) for 60 min at 60°C. One enzymatic unit is defined as the amount of enzyme required for catalyzing the hydrolysis of 1 μmol of p-nitrophenylphosphate per minute. p-Nitrophenylphosphate disodium salt at 5–50 nmol (Fisher, Waltham, Massachusetts) was used for generation of a standard curve. The amount of inorganic phosphate generated was measured spectrophotometrically using an EnzChek Phosphate Assay kit (Life Technologies, Carlsbad, California) according to the manufacturer’s instructions on a DU-640 spectrophotometer (Beckman Coulter, Brea, California) at λ = 360 nm. Baseline values were subtracted from readings and compared to the standard curve resulting from serial ALP reactions to calculate the amount of inorganic phosphate. Similarly, potential dephosphorylation of CLR01 by brain homogenates was measured. For these experiments, one brain hemisphere was homogenized by sonication in the presence of cOmplete protease-inhibitor cocktail (Roche, Penzberg, Germany). Protein concentration was measured using a BCA Protein Assay Kit (Pierce, Rockford, Illinois). […]

O=P(O)(O)Oc1c2c(c(O)c3c1C1CC3c3cc4c(cc31)C1CC4c3ccccc31)C1CC2c2cc3c(cc21)C1CC3c2ccccc21 [monophosphate metabolite]
Solubility in aqueous solutions [1]: soluble at millimolar concentrations

O=[N+]([O-])c1ccc(OP(=O)(O)O)cc1 [p-nitrophenylphosphate, reference compound]
Dephosphorylation by brain homogenate, % of the activity of 0.8 enzymatic units of ALP [2]: 99 - 130%
